Measured values published in patent US9567569B2, “Methods of culturing and expanding mesenchymal stem cells” (Gamida Cell Ltd., priority 2012, dated 2017).
“Also recorded” adds a separate entry of the source.

Columns and labels:
[1] = tested on: Human bone marrow derived mesenchymal cells; assay: Expansion of mesenchymal stem cells in culture in the presence or absence of SR1 (cell counts, doubling time); type: cell-based
Description: (§1) Isolation—Human bone marrow derived mesenchymal cells were isolated based on their plastic adherence potential in expansion medium containing: High glucose DMEM and 10% Fetal Bovine Serum (FBS, Hyclone, Logan, Utah, USA), 0.05 mg/ml Gentamicin (Sigma) and 2 mM L-glutamine (Biological Industries, Israel). Cells were allowed to adhere for 3-4 days and non-adherent cells were washed out with medium changes. Expansion—Mesenchymal stem cells were isolated using plastic adherence method, as described above and cultured for several passages in a medium which comprises fetal bovine serum in the presence or absence of SR1 for three passages (StemRegenin1, BioVision cat#1967-1). Three concentrations 250, 1000 and 2500 nM of SR1 were examined. At about 80% confluence, adherent cells were collected following trypsin treatment, counted, characterized and re-seeded at a concentration of 1×10^3 cells/cm^2.

CD34+ cells = settings: cited from earlier work
[2] = target: T1, aryl hydrocarbon receptor (AhR) (Homo sapiens, UniProt P35869); settings: cited from earlier work
T1 sequence (P35869 11-848): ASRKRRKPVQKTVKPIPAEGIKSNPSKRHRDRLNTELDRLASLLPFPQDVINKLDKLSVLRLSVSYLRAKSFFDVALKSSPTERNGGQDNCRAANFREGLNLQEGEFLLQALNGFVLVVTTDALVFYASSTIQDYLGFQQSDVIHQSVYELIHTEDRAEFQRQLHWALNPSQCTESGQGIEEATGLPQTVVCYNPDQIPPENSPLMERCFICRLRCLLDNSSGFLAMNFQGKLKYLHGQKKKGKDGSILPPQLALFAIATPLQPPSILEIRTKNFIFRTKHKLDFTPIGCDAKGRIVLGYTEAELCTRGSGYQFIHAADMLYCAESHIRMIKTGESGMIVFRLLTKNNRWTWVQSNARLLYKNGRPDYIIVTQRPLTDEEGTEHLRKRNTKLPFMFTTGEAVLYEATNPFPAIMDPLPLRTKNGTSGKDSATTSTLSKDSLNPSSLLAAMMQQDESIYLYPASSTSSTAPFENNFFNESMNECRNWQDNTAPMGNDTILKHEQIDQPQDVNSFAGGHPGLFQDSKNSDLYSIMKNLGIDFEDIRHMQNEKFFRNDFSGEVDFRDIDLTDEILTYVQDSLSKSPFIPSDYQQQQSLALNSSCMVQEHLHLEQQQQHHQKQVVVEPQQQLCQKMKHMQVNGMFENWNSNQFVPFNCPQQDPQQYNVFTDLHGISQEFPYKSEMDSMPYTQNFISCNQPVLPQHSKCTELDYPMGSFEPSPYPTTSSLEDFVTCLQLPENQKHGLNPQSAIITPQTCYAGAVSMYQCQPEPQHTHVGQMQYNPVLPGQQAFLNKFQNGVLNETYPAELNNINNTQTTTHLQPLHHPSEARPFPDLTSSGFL

[3] = tested on: Human bone marrow derived mesenchymal cells; assay: FACS measurement of CD45, CD105 and VCAM1/CD106 on cultured mesenchymal stem cells; type: cell-based; settings: with vs without SR1 under identical conditions
Description: as §1, with “Measurement of CD45, CD105” for “Three concentrations 250, 1000”, “VCAM1/CD106: following Trypsin treatment the” for “2500 nM of SR1 were examined. At about 80% confluence, adherent”, “analyzed for CD45, CD105 or CD106 expression in FACS using anti-human CD45 FITC, CD105 PE or CD106 APC antibodies.” for “collected following trypsin treatment, counted, characterized and re-seeded at a concentration of 1×10^3 cells/cm^2.”

SMILES: CC(C)n1cnc2c(NCCc3ccc(O)cc3)nc(-c3csc4ccccc34)nc21 [SR1, 4-(2-(2-(benzo[b]thiophen-3-yl)-9-isopropyl-9H-purin-6-ylamino)ethyl)phenol]
- effect on the proliferation of mesenchymal stem cells (cumulative count) ([1]; SR1 250, 1000 and 2500 nM vs control, three passages, FIGS. 1-3): proliferate more rapidly; also recorded: positive effect
- most effective concentration for proliferation of mesenchymal stem cells ([1]; of 250, 1000 and 2500 nM examined): 250 nM
- doubling time of mesenchymal stem cells ([1]; passage 2, with vs without SR1, FIG. 3): decreased
- time for cultures to reach confluence ([1]; with vs without SR1): substantially shorter period of time
- ex vivo expansion of CD34+ cells (CD34+ cells): promote the ex vivo expansion of CD34+ cells
- action on the aryl hydrocarbon receptor [2]: antagonizing
- CD45 and CD105 levels (percentage of CD105+CD45- cells) ([3]; FIG. 4): same CD45 and CD105 levels
- VCAM1/CD106 expression (percentage of CD106+ cells) ([3]; FIG. 5): increase the fraction of CD106+ cells; also recorded: express more VCAM1/CD106 adhesion molecule
